Measurements: patent publication US5382679A, “Process for the preparation of glutathione S-acyl derivatives, compounds obtained from said process and an intermediate useful for the preparation thereof” (Boehringer Mannheim Italia S.p.A., priority 1990, dated 1995)

How the values were obtained:
[1] = Enzymatic hydrolysis of thioester bond in cytosol; format: in vitro ADME; settings: GSH derivative 0, 16 mM; for enzymatic hydrolysis specific activity of thioester bond, Cytosol: mean ± SD on 6 tests
From the text: (§1) |The enzymatic hydrolysis specific activity of thioester |bond is expressed as -SH released nmoles/min/mg of […]. […] Spontaneous hy- |drolysis of the substrates ranges from 1% to 10% maxi- |mum. […] |sts.

[2] = Enzymatic hydrolysis of thioester bond in serum; format: in vitro ADME; settings: GSH derivative 0, 16 mM, mean ± SD on 6 tests
From the text: as §1

enzymatic hydrolysis specific activity of thioester bond, Cytosol [1]	Ratio (intracellular to extracellular hydrolysis rate, Cytosol/Serum) [1]	SMILES	enzymatic hydrolysis specific activity of thioester bond, Serum [2]
10,8 ± 1,5 -SH released nmoles/min/mg of	–	CC(=O)SC[C@H](NC(=O)CC[C@H](N)C(=O)O)C(=O)NCC(=O)O [S-acetyl, γ-L-glutamyl-S-acetyl-L-cysteinyl-glycine]	0 -SH released nmoles/min/mg of
3,2 ± 1,1 -SH released nmoles/min/mg of	80,0	N[C@@H](CCC(=O)N[C@@H](CSC(=O)c1ccccc1)C(=O)NCC(=O)O)C(=O)O [S-benzoyl, γ-L-glutamyl-S-benzoyl-L-cysteinyl-glycine]	0,04 ± 0,005 -SH released nmoles/min/mg of
1,45 ± 0,8 -SH released nmoles/min/mg of	18,5	CCOC(=O)CNC(=O)[C@H](CSC(=O)c1ccccc1)NC(=O)CC[C@H](N)C(=O)OCC [S-benzoyl-diethylester]	0,07 ± 0,005 -SH released nmoles/min/mg of
0,6 ± 0,08 -SH released nmoles/min/mg of	6,0	CCOC(=O)CNC(=O)[C@H](CSC(=O)c1ccccc1)NC(=O)CC[C@H](N)C(=O)O [S-benzoyl-monoethylester, ethyl γ-L-glutamyl-S-benzoyl-L-cysteinyl glycinate]	0,10 ± 0,004 -SH released nmoles/min/mg of
6,7 ± 0,9 -SH released nmoles/min/mg of	134,0	N[C@@H](CCC(=O)N[C@@H](CSC(=O)Cc1ccccc1)C(=O)NCC(=O)O)C(=O)O [S-phenylacetyl, γ-L-glutamyl-S-phenylacetyl-L-cysteinyl-glycine]	0,05 ± 0,003 -SH released nmoles/min/mg of
6,9 ± 0,7 -SH released nmoles/min/mg of	–	CC(C)(C)C(=O)SC[C@H](NC(=O)CC[C@H](N)C(=O)O)C(=O)NCC(=O)O [S-pivaloyl, γ-L-glutamyl-S-pivaloyl-L-cysteinyl-glycine]	0 -SH released nmoles/min/mg of
